From patent US20150352075A1, “Treatment of Alzheimer's and Cognitive Impairment With Andrographolides” (INNOBIOSCIENCE, LLC, priority 2013, published 2015)

Key:
[1] = test system: CA3-CA1 connections in hippocampal slices; assay: Electrophysiology (fEPSP, PPF, LTP, LTD) in Wt hippocampal slices; format: cell-based, mice; conditions: hippocampal slices, LFS
Method: Slices were transferred to an experimental chamber (2 ml), superfused (3 ml/min, at 20-22° C.) with gassed ACSF and visualized by trans-illumination with a binocular microscope (MSZ-10, Nikon, Melville, N.Y.). […] The stimulation was in the Stratum Radiatum within 100-200 μm from the recording site. The paired pulse facilitation index was calculated by ((R2−R1)/R1), where R1 and R2 were the peak amplitudes of the first and second fEPSP respectively. To generate LTP we used Theta Burst Stimulation (TBS) consisting of 5 trains of stimulus with an inter-train interval of 20 s. Each train consisted of 10 bursts at 5 Hz and each burst having 4 pulses at 100 Hz. To generate LTD we used Low Frequency Stimulation (LFS) consisting in 900 paired pulses at 1 Hz. Recordings were filtered at 2.0-3.0 kHz, sampled at 4.0 kHz using an A/D converter, and stored with pClamp 10 (Molecular Devices). Evoked postsynaptic responses were analyzed off-line, using an analysis software (pClampfit, Molecular Devices), which allowed visual detection of events, computing only those events that exceeded and arbitrary threshold.

[2] = test system: Wnt/β-catenin pathway in hippocampal slices; assay: Wnt pathway mechanism in hippocampal slices (sFRP, Dkk-1, Dvl-3 mobility shift, time course); format: cell-based, mice; conditions: for time at which total levels of β-catenin increased: slices from 2 month-old wild-type mice, 5 μM ANDRO, Wnt3a conditioned medium or 10 μM 6-B10
Method: Slice preparation. […] Transverse slices (250-300 μm) from the dorsal hippocampus were cut under oxygen-saturated cold artificial cerebrospinal fluid using a Vibroslice microtome (VSL, World Precision Instruments, Inc WPI, Sarasota, Fla.). After obtained, slices were incubated in ACSF for at least than one hour at room temperature, in order to stabilize activity. In every moment during dissection, slicing and experimentation slices were oxygenated with 95% oxygen-5% carbon dioxide.
Briefly, tissues were homogenized in RIPA buffer (10 mM Tris-Cl, pH 7.4, EDTA 5 mM, 1% NP-40, 1% sodium deoxycholate, and 1% SDS) supplemented with a protease inhibitor mixture (1 mM PMSF, 2 μg/mL aprotinin, 1 μg/mL pepstatin and 10 μg/mL benzamidine) and phosphatase inhibitors (25 mMNaF, 100 mM Na3VO4, 1 mM EDTA and 30 μM Na4P207) using a Potter homogenizator and then passed sequentially through different caliber syringes. […] Protein concentration was determined using the BCA Protein Assay Kit (Pierce). Samples were resolved by […] 10% SDS-PAGE and transferred to a PVDF membrane. The reactions were followed by incubation with anti-mouse, anti-goat or anti-rabbit IgG peroxidase conjugated (Pierce, Rockford, Ill.) and developed using an ECL kit (Western Lightning Plus ECL, PerkinElmer).

HEK293T cells = assay: TOPflash/FOPflash luciferase reporter assay; format: cell-based
Method: 150,000 HEK293T cells were seeded in triplicate per condition and kept for 24 hours at 37° C. with 5% CO2. The cultures were transfected with TOPflash or FOPflash (400 ng), which are firefly-luciferase reporter DNA constructs (Milipore), using LipofectAMINE 2000 (Invitrogen). To control for transfection pRL-TK (10 ng) was included in all transfections. […] Values were normalized by the renilla value from the same well. To statistically compare treatments ANOVA was used.

[3] = test system: Wnt target genes in cultured hippocampal neurons; assay: PCR array of Wnt target genes in hippocampal neurons; format: cell-based, rat
Method: Primary culture of rat hippocampal neurons. […] PCR-ARRAY. RNA from hippocampal neurons was extracted using Trizol. Quantification and purity of RNA preparations were checked by absorbance using Nanodrop ND-2000. Only preparations with a 260/280 nm ratio ≧1.8, a 260/230 nm ratio ≧1.7 and no sign of RNA degradations, verified by agarose gel electrophoresis with Gel Red™ were used. Genomic DNA was degraded. Using RT2First-Strand cDNA Synthesis kit (SuperArray), 1 ng total RNA was reverse transcribed and then real-time PCR was performed by adding cDNA directly to PCR Master Mix, containing SYBR Green and ROX. The mixtures were then aliquoted into a 96-well PCR array plates, which profiles the expression of 84 Wnt target genes from rat. The PCR was run on ABI StepOnePlus, with 1 cycle of 10 min at 95° C. followed by 40 cycles of 15s at 95° C. and 1 min at 60° C. […] Treatment of neuronal cultures. Primary hippocampal cultures of neurons 14 DIV were washed twice in neurobasal medium and maintained for 1 hour. Next ANDRO (10 μM) and 6-BIO (10 μM) were added to different time periods.

## O=C1Nc2cc(Br)ccc2/C1=C1/Nc2ccccc2/C1=N\O [6-B10, 6-bromoindirubin-3′-oxime, reference compound]
[1]
  induction of LTD: complete inhibition of the induction of LTD
[2]; compared to Wnt-3a treatment
  speed of increase in GSK3β pSer-9 and decrease in pTyr-216: faster
[2]
  time at which total levels of β-catenin increased: 15 min
HEK293T cells; 10 μM, 24 h
  FOPflash reporter activity: not in the FOPflash
  TOPflash reporter activity: significant increase in the TOPflash
HEK293T cells; HEK293T, TOPflash
  increase of luciferase reporter over control: ~6 fold
[3]
  Cdh-1 gene expression: does not by 6-B10
[3]; 9 h, of the 86 genes analyzed
  number of Wnt target genes specifically modulated: 4 genes
  number of modulated Wnt target genes shared by both treatments: 4

B1: Wnt-3a: conditioned medium of Wnt3a ligand, the canonical Wnt ligand (protein, UniProt P56704 19-352, looked up)
Protein Wnt-3a: SYPIWWSLAVGPQYSSLGSQPILCASIPGLVPKQLRFCRNYVEIMPSVAEGIKIGIQECQHQFRGRRWNCTTVHDSLAIFGPVLDKATRESAFVHAIASAGVAFAVTRSCAEGTAAICGCSSRHQGSPGKGWKWGGCSEDIEFGGMVSREFADARENRPDARSAMNRHNNEAGRQAIASHMHLKCKCHGLSGSCEVKTCWWSQPDFRAIGDFLKDKYDSASEMVVEKHRESRGWVETLRPRYTYFKVPTERDLVYYEASPNFCEPNPETGSFGTRDRTCNVSSHGIDGCDLLCCGRGHNARAERRREKCRCVFHWCCYVSCQECTRVYDVHTCK
modifications: conditioned medium
[2]; antagonist 15 min prior, 5 μM ANDRO or Wnt3a conditioned medium for 1 h
  inhibition of β-catenin accumulation by Wnt antagonists sFRP and Dkk-1: inhibit the accumulation of β-catenin in the presence of Wnt3a
[2]
  time at which total levels of β-catenin increased: 45 min
